Each structure is given as a SMILES string.

The assay deals with T1, Caspase-1 (Homo sapiens, UniProt P29466).
T1 sequence (P29466 whole entry): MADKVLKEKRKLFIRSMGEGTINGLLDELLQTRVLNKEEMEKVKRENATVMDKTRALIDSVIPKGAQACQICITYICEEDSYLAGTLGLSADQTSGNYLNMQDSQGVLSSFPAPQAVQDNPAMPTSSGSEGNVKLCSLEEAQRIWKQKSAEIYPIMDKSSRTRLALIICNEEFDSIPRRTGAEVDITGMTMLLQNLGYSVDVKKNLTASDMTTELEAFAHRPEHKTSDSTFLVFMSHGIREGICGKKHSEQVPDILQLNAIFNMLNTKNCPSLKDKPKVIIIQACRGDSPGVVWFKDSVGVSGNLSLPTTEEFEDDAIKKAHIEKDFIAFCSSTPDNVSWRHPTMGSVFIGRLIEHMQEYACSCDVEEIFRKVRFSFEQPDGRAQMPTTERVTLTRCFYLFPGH
The assay can be described thus: The compound was tested for its inhibitory activity against IL-1 beta converting enzyme.
In the case of `CC(=O)N[C@@H](Cc1ccc(O)cc1)C(=O)N[C@H](C(=O)N[C@@H](C)C(=O)N[C@@H](CC(=O)O)C(=O)CCCCc1ccccc1)C(C)C`, the Ki (commonly the equilibrium dissociation constant of an inhibitor or competing ligand from its target) is 0.042 µM.
For the compound `CC(=O)N[C@@H](Cc1ccc(O)cc1)C(=O)N[C@H](C(=O)N[C@@H](C)C(=O)N[C@@H](CC(=O)O)C(=O)C1CCCCC1)C(C)C`, the inhibition constant Ki was more than 100 µM.
For `CC(C)[C@H](NC(=O)CCc1ccccc1)C(=O)N[C@@H](C)C(=O)N[C@@H](CC(=O)O)C(=O)Cc1ccccc1`, the affinity corresponds to a Ki of 3.1 µM.
Next, `CC(C)[C@H](NC(=O)CCc1ccccc1)C(=O)N[C@@H](C)C(=O)N[C@@H](CC(=O)O)C(=O)CCCc1ccccc1`: 0.1 µM; `CC(C)[C@H](NC(=O)CCc1ccccc1)C(=O)N[C@@H](C)C(=O)N[C@@H](CC(=O)O)C(=O)CCc1ccccc1`: 0.61 µM.
Next, `CC(=O)N[C@@H](Cc1ccc(O)cc1)C(=O)N[C@H](C(=O)N[C@@H](C)C(=O)N[C@@H](CC(=O)O)C(=O)CCCCCc1ccccc1)C(C)C`: 0.0185 µM.
`CCC(=O)[C@H](CC(=O)O)NC(=O)[C@H](C)NC(=O)[C@@H](NC(=O)[C@H](Cc1ccc(O)cc1)NC(C)=O)C(C)C` returned a Ki of 4 µM.
For `CC(=O)N[C@@H](Cc1ccc(O)cc1)C(=O)NC(C(=O)N[C@@H](C)C(=O)NC(CC(=O)O)C(C)=O)C(C)C` (single isomer, unassigned), the Ki was more than 10 µM.
`CC(=O)N[C@@H](Cc1ccc(O)cc1)C(=O)N[C@H](C(=O)N[C@@H](C)C(=O)N[C@@H](CC(=O)O)C(=O)c1ccccc1)C(C)C` (stereo in doubt): affinity was put at a Ki of 10 µM.
As to `CC(=O)N[C@@H](Cc1ccc(O)cc1)C(=O)N[C@H](C(=O)N[C@@H](C)C(=O)N[C@@H](CC(=O)O)C(=O)c1ccccc1)C(C)C` (stereo in doubt; 7c), the Ki was more than 100 µM.
